Test results from patent US20130115271A1, “PREDICTORS OF PHARMACOKINETIC AND PHARMACODYNAMIC DISPOSITION OF CARRIER-MEDIATED AGENTS” (THE UNIVERSITY OF NORTH CAROLINA AT CHAPEL HILL, priority 2010, published 2013).

Columns and labels:
[1] = test system: absolute neutrophil count (ANC); assay: Degree of neutropenia in phase I studies of S-CKD602 and NL-CKD602; assay type: in vivo, human; conditions: patients with refractory solid tumors
Description: (§1) To examine the relationship between S-CKD602 PK and monocytes (MO) in patients, we evaluated the degree of neutropenia and monocytopenia as part of phase I studies of S-CKD602 and non-liposomal CKD-602 (NL-CKD602) in patients with refractory solid tumors. After administration of NL-CKD602, the % decrease at nadir in absolute neutrophil count (ANC) and MO were 86±11% and 87±12%, respectively (P>0.05). For NL-CKD602, the ratio of % decrease in MO to ANC was 1.1±0.4. After administration of S-CKD602, the % decrease at nadir in ANC and MO were 42±30% and 58±34%, respectively (P=0.001). For S-CKD602, the ratio of % decrease in MO to ANC was 2.1±2.0. The relationship between the % decrease in MO at nadir and CL of encapsulated CKD-602 and the release of CKD-602 from S-CKD602 in plasma are presented in FIGS. 3 and 4, respectively. […] The CL of encapsulated drug and release of drug from the liposome in plasma is related to a reduction in MO. […] Consistent with the PK-PD interaction between S-CKD602 and MO we also have reported that decreased DOXIL® CL from cycle 1 to 3 is related to a reduction in MO during each subsequent cycle (Gabizon et al., (1994) Cancer Res. 54: 987-992; La-Beck et al., (2009) J. Clin. Oncol. 27(15S)).

monocytes (MO) = assay: Degree of monocytopenia in phase I studies of S-CKD602 and NL-CKD602; assay type: in vivo, human; conditions: patients with refractory solid tumors
Description: as §1

## CC[C@@]1(O)C(=O)OCc2c1cc1n(c2=O)Cc2c-1nc1ccccc1c2CCNC(C)C [NL-CKD602]
[1]
  % decrease at nadir in absolute neutrophil count (ANC): 86±11%
Monocytes (MO)
  % decrease at nadir in monocytes (MO): 87±12%
  ratio of % decrease in MO to ANC: 1.1±0.4
